Consider 27 compounds from patent US20240376100A1 (Redona Therapeutics, Inc., priority 2021, published 2024).

Structures can show the parent of a compound that is named as a salt. Some results are limits rather than exact numbers.

Usually IC50 stands for the concentration that inhibits the measured activity by half.

PAPD5 enzyme, sequence (Q8NDF8 whole entry): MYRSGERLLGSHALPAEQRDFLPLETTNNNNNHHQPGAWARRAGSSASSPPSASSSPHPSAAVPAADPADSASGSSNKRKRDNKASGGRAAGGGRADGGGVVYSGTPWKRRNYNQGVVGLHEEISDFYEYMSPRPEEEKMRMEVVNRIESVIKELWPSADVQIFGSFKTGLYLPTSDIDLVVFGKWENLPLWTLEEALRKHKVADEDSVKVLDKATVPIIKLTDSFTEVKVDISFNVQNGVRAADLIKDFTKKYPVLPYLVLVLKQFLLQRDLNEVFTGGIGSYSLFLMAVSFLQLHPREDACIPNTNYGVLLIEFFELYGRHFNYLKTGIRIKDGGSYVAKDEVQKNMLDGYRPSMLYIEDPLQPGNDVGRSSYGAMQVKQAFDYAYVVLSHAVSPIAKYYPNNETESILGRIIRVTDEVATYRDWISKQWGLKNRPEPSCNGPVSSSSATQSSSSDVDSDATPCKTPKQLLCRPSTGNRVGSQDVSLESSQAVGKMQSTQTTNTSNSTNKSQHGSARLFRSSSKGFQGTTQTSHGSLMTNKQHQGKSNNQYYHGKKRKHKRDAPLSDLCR

The experiment concerns the target PAPD5 enzyme (Homo sapiens, UniProt Q8NDF8). As to the kind of experiment: PAPD5 assay (AMP incorporation onto 3'-terminus of RNA substrate, fluorescence quench). In kind it is biochemical. The note with it: PAPD5 protein 0.3 nM, ATP 50 μM, 30 minutes preincubation, room temperature; read-out: Potency PAPD5 IC50. Put shortly:
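Enzyme at 0.3 nM with 50 μM ATP, pH 7.3 HEPES buffer, preincubated with compound 30 minutes at room temperature; 5 nM 5′-fluorescein RNA substrate and 20 nM TAMRA quench probe then added. Initial rates from kinetic fluorescein decrease over ~90 minutes; IC50 by four-parameter fit.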
As for `CNCCNc1cc(C)c(-n2cc(C(=O)O)c(=O)c3cc(Cl)c(N4Cc5cccnc5C4)nc32)cn1` [Example 171, 6-chloro-7-(5,7-dihydro-6H-pyrrolo[3,4-b]pyridin-6-yl)-1-(4-methyl-6-((2-(methylamino)ethyl)amino)pyridin-3-yl)-4-oxo-1,4-dihydro-1,8-naphthyridine-3-carboxylic acid], the IC50 is no more than 1 µM. Turning to `CN(CCO)c1ccn(-c2cc3c(cc2Cl)c(=O)c(C(=O)O)cn3-c2ccc(N)nc2)n1` [Example 92, 1-(6-aminopyridin-3-yl)-6-chloro-7-(3-((2-hydroxyethyl)(methyl)amino)-1H-pyrazol-1-yl)-4-oxo-1,4-dihydroquinoline-3-carboxylic acid], the IC50 is no more than 1 µM. For `COc1cc2c(=O)c(C(=O)O)cn(-c3cnc(NC(=O)OC(C)(C)C)cc3C)c2cc1N1Cc2cccnc2C1` [Example 135, 1-(6-((tert-butoxycarbonyl)amino)-4-methylpyridin-3-yl)-7-(5,7-dihydro-6H-pyrrolo[3,4-b]pyridin-6-yl)-6-methoxy-4-oxo-1,4-dihydroquinoline-3-carboxylic acid], the IC50 was no more than 1 µM.

As to `Nc1ccc(-n2cc(C(=O)O)c(=O)c3cc(F)c(N4Cc5ccccc5C4)cc32)cn1` [Example 195, 1-(6-aminopyridin-3-yl)-6-fluoro-7-(isoindolin-2-yl)-4-oxo-1,4-dihydroquinoline-3-carboxylic acid], the IC50 is no more than 1 µM. Turning to `Cc1cc(N)ncc1-n1cc(C(=O)O)c(=O)c2cc(Cl)c(N3Cc4ccc(F)cc4C3)nc21` [Example 160, 1-(6-amino-4-methylpyridin-3-yl)-6-chloro-7-(5-fluoroisoindolin-2-yl)-4-oxo-1,4-dihydro-1,8-naphthyridine-3-carboxylic acid], the IC50 is no more than 1 µM. To `COCCNc1cc(C)c(-n2cc(C(=O)O)c(=O)c3cc(Cl)c(N4Cc5cccnc5C4)nc32)cn1` [Example 151, 6-chloro-7-(5,7-dihydro-6H-pyrrolo[3,4-b]pyridin-6-yl)-1-(6-((2-methoxyethyl)amino)-4-methylpyridin-3-yl)-4-oxo-1,4-dihydro-1,8-naphthyridine-3-carboxylic acid] belongs no more than 1 µM; to `O=C(O)c1cn(-c2cnccn2)c2cc(N3Cc4ccccc4C3)c(Cl)cc2c1=O` [Example 21, 6-chloro-7-(isoindolin-2-yl)-4-oxo-1-(pyrazin-2-yl)-1,4-dihydroquinoline-3-carboxylic acid], no more than 1 µM; to `Cc1cc(NC(=O)OC(C)(C)C)ncc1-n1cc(C(=O)O)c(=O)c2cc(Cl)c(-n3cccn3)nc21` [Example 164, 1-(6-((tert-butoxycarbonyl)amino)-4-methylpyridin-3-yl)-6-chloro-4-oxo-7-(1H-pyrazol-1-yl)-1,4-dihydro-1,8-naphthyridine-3-carboxylic acid], no more than 1 µM. For `CNc1ccn(-c2nc3c(cc2Cl)c(=O)c(C(=O)O)cn3-c2cnc(N)cc2C)n1` [Example 148, 1-(6-amino-4-methylpyridin-3-yl)-6-chloro-7-(3-(methylamino)-1H-pyrazol-1-yl)-4-oxo-1,4-dihydro-1,8-naphthyridine-3-carboxylic acid], the IC50 was no more than 1 µM. For `Cc1cc(N)ncc1-n1cc(C(=O)O)c(=O)c2cc(Cl)c(-n3ccnc3)nc21` [Example 152, 1-(6-amino-4-methylpyridin-3-yl)-6-chloro-7-(1H-imidazol-1-yl)-4-oxo-1,4-dihydro-1,8-naphthyridine-3-carboxylic acid], the IC50 was no more than 1 µM. Turning to `Cc1cc(NC(=O)OC(C)(C)C)ncc1-n1cc(C(=O)O)c(=O)c2cnc(N3Cc4cccnc4C3)cc21` [Example 150, 1-(6-((tert-butoxycarbonyl)amino)-4-methylpyridin-3-yl)-7-(5,7-dihydro-6H-pyrrolo[3,4-b]pyridin-6-yl)-4-oxo-1,4-dihydro-1,6-naphthyridine-3-carboxylic acid], the IC50 is no more than 1 µM.

Consider `Cc1cc(NC(=O)OC(C)(C)C)ncc1-n1cc(C(=O)O)c(=O)c2cc(Cl)c(N3CCc4ccccc4C3)nc21` [Example 175, 1-(6-((tert-butoxycarbonyl)amino)-4-methylpyridin-3-yl)-6-chloro-7-(3,4-dihydroisoquinolin-2(1H)-yl)-4-oxo-1,4-dihydro-1,8-naphthyridine-3-carboxylic acid], for which the IC50 is no more than 1 µM. Turning to `CC(C)(C)OC(=O)N1CCC(Cn2cc(C(=O)O)c(=O)c3cc(Cl)c(N4Cc5cccnc5C4)nc32)CC1` [Example 72, 1-((1-(tert-butoxycarbonyl)piperidin-4-yl)methyl)-6-chloro-7-(5,7-dihydro-6H-pyrrolo[3,4-b]pyridin-6-yl)-4-oxo-1,4-dihydro-1,8-naphthyridine-3-carboxylic acid], the IC50 was no more than 1 µM. Then `Cc1cc(N2CCC2)ncc1-n1cc(C(=O)O)c(=O)c2cc(F)c(N3Cc4cccnc4C3)cc21` [Example 190, 1-(6-(azetidin-1-yl)-4-methylpyridin-3-yl)-7-(5,7-dihydro-6H-pyrrolo[3,4-b]pyridin-6-yl)-6-fluoro-4-oxo-1,4-dihydroquinoline-3-carboxylic acid], with no more than 1 µM; and `Cc1cc(NC(=O)OC(C)(C)C)ncc1-n1cc(C(=O)O)c(=O)c2ccc(N3Cc4cccnc4C3)c(F)c21` [Example 156, 1-(6-((tert-butoxycarbonyl)amino)-4-methylpyridin-3-yl)-7-(5,7-dihydro-6H-pyrrolo[3,4-b]pyridin-6-yl)-8-fluoro-4-oxo-1,4-dihydroquinoline-3-carboxylic acid], with no more than 1 µM. To `Nc1cc(C2CC2)c(-n2cc(C(=O)O)c(=O)c3cc(Cl)c(N4Cc5cccnc5C4)cc32)cn1` [Example 118, 1-(6-amino-4-cyclopropylpyridin-3-yl)-6-chloro-7-(5,7-dihydro-6H-pyrrolo[3,4-b]pyridin-6-yl)-4-oxo-1,4-dihydroquinoline-3-carboxylic acid] belongs no more than 1 µM; to `Cc1cc(N)ncc1-n1cc(C(=O)O)c(=O)c2ccc(N3Cc4cccnc4C3)c(F)c21` [Example 154, 1-(6-amino-4-methylpyridin-3-yl)-7-5,7-dihydro-6H-pyrrolo[3,4-b]pyridin-6-yl)-8-fluoro-4-oxo-1,4-dihydroquinoline-3-carboxylic acid hydrochloride], no more than 1 µM; to `Cc1cc(NC(=O)OC(C)(C)C)ncc1-n1cc(C(=O)O)c(=O)c2cc(Cl)c(N3Cc4cccc(F)c4C3)nc21` [Example 166, 1-(6-((tert-butoxycarbonyl)amino)-4-methylpyridin-3-yl)-6-chloro-7-(4-fluoroisoindolin-2-yl)-4-oxo-1,4-dihydro-1,8-naphthyridine-3-carboxylic acid], no more than 1 µM. Regarding `COc1cccc2c1CN(c1nc3c(cc1Cl)c(=O)c(C(=O)O)cn3-c1cnc(N)cc1C)C2` [Example 178, 1-(6-amino-4-methylpyridin-3-yl)-6-chloro-7-(4-methoxyisoindolin-2-yl)-4-oxo-1,4-dihydro-1,8-naphthyridine-3-carboxylic acid], the 50% inhibitory concentration (IC50) was no more than 1 µM.

As to `Cc1cc(N(C)CCN(C)C)ncc1-n1cc(C(=O)O)c(=O)c2cc(Cl)c(N3Cc4cccnc4C3)nc21` [Example 192, 6-chloro-7-(5,7-dihydro-6H-pyrrolo[3,4-b]pyridin-6-yl)-1-(6-((2-(dimethylamino)ethyl)(methyl)amino)-4-methylpyridin-3-yl)-4-oxo-1,4-dihydro-1,8-naphthyridine-3-carboxylic acid], the IC50 was no more than 1 µM. For the compound `Cc1cc(N2CCC2)ncc1-n1cc(C(=O)O)c(=O)c2cc(F)c(N3Cc4cccnc4C3)nc21` [Example 183, 1-(6-(azetidin-1-yl)-4-methylpyridin-3-yl)-7-(5,7-dihydro-6H-pyrrolo[3,4-b]pyridin-6-yl)-6-fluoro-4-oxo-1,4-dihydro-1,8-naphthyridine-3-carboxylic acid], the IC50 is no more than 1 µM. Regarding `Cc1cc2c(=O)c(C(=O)O)cn(-c3cnc(NC(=O)OC(C)(C)C)cc3C)c2cc1N1Cc2cccnc2C1` [Example 142, 1-(6-((tert-butoxycarbonyl)amino)-4-methylpyridin-3-yl)-7-(5,7-dihydro-6H-pyrrolo[3,4-b]pyridin-6-yl)-6-methyl-4-oxo-1,4-dihydroquinoline-3-carboxylic acid], the IC50 was no more than 1 µM. As for `Cc1cc(NC(=O)N2CCOCC2)ncc1-n1cc(C(=O)O)c(=O)c2cc(Cl)c(N3Cc4cccnc4C3)cc21` [Example 115, 6-chloro-7-(5,7-dihydro-6H-pyrrolo[3,4-b]pyridin-6-yl)-1-(4-methyl-6-(morpholine-4-carboxamido)pyridin-3-yl)-4-oxo-1,4-dihydroquinoline-3-carboxylic acid], the IC50 was no more than 1 µM.

`O=C(O)c1cn(Cc2c[nH]cn2)c2cc(N3Cc4cccnc4C3)c(Cl)cc2c1=O` [Example 85, 1-((1H-imidazol-4-yl)methyl)-6-chloro-7-(5,7-dihydro-6H-pyrrolo[3,4-b]pyridin-6-yl)-4-oxo-1,4-dihydroquinoline-3-carboxylic acid]: the IC50 was no more than 1 µM.

As to `O=C(O)c1cn(-c2cnccn2)c2nc(N3Cc4cccnc4C3)c(Cl)cc2c1=O` [Example 2, 6-chloro-4-oxo-1-(pyrazin-2-yl)-7{5H,6H,7H pyrrolo[3,4-b]pyridin-6-yl}-1,4-dihydro-1,8-naphthyridine-3-carboxylic acid], the IC50 is no more than 1 µM. To `N#Cc1cc2c(=O)c(C(=O)O)cn(-c3cccnc3)c2cc1N1Cc2cccc(F)c2C1` [Example 53, 6-cyano-7-(4-fluoroisoindolin-2-yl)-4-oxo-1-(pyridin-3-yl)-1,4-dihydroquinoline-3-carboxylic acid] belongs no more than 1 µM; to `Cc1cc(NC(=O)OC(C)(C)C)ncc1-n1cc(C(=O)O)c(=O)c2ccc(N3Cc4cccnc4C3)cc21` [Example 136, 1-(6-((tert-butoxycarbonyl)amino)-4-methylpyridin-3-yl)-7-(5,7-dihydro-6H-pyrrolo[3,4-b]pyridin-6-yl)-4-oxo-1,4-dihydroquinoline-3-carboxylic acid], no more than 1 µM.
